These molecules were tested on compound 48/80-induced lethality (assay: Protection of rats from compound 48/80-induced lethality). Settings: Rattus norvegicus, 4 h, read-out: Compound 48/80 lethality test in rats ED50, s.c. or p.o. 1 h before compound 48/80 0.5 mg/kg i.v.; protection of 50% of animals, survival after 4 hours.
Type: in vivo, rats of an inbred Wistar strain
Procedure: Protection of rats from compound 48/80-induced lethality
The protection from compound 48/80-induced lethal circulatory collapse appears to be a simple way of evaluating quantitatively the antihistaminic activity of test compounds. Male rats of an inbred Wistar strain, weighing 240-260 g were used in the experiment. After overnight starvation the rats were transferred to conditioned laboratories (temp.=21±1° C., relative humidity=65+5%). The rats were treated subcutaneously or orally with a test compound or with the solvent (NaCl solution, 0.9%). […] Survival after 4 hours is therefore considered to be a safe criterion of a protective effect of drug administration. The ED50 -values of the compounds of formula (I) are listed in the first column of tables 1 to 4. Said ED50 -values are the values in mg/kg body weight at which the tested compounds protect 50% of the tested animals against compound 48/80-induced lethality. The compounds of formula (I) and the pharmaceutically acceptable acid addition salts thereof are also potent serotonin-antagonists. The potency of the subject compounds as serotonin-antagonists is clearly evidenced by the results obtained in the following tests wherein the antagonistic activity of the subject compounds on the effect of serotonin is examined.

Row | Structure (SMILES) | ED50
1 | COc1ccc(Cn2c(CC3CCN(CC#N)CC3)nc3ccccc32)cc1 [Compound 293] | 0.08 mg/kg
2 | C=CCN1CCC(Cc2nc3ccccc3n2Cc2ccc(F)cc2)CC1 [Compound 144, 1-[(4-fluorophenyl)methyl]-2-[[1-(2-propenyl)-4-piperidinyl]methyl]-1H-benzimidazole] | 0.04 mg/kg
3 | Fc1ccc(Cn2c(CC3CCN(Cc4ccccc4)CC3)nc3ccncc32)cc1 [Compound 25, 3-[(4-fluorophenyl)methyl]-2-[[1-(phenylmethyl)-4-piperidinyl]-methyl]-3H-imidazo[4,5-c]pyridine] | 0.16 mg/kg
4 | O=c1[nH]c2ccccc2c(=O)n1CCCCN1CCC(Cc2nc3ccccc3n2Cc2ccco2)CC1 [Compound 490, 3-[4-[4-[[1-(2-furanylmethyl)-1H-benzimidazol-2-yl]methyl]-1-piperidinyl]butyl]-2,4(1H,3H)-quinazolinedione] | 0.31 mg/kg
5 | Fc1ccc(Cn2c(SC3CCN(CCNc4ncccn4)CC3)nc3ccccc32)cc1 [Compound 333, N-[2-[4-[[1-[(4-fluorophenyl)methyl]-1H-benzimidazol-2-yl]thio]-1-piperidinyl]ethyl]-2-pyrimidinamine] | 0.04 mg/kg
6 | N#CCN1CCC(Cc2nc3ccccc3n2Cc2ccccc2)CC1 [Compound 297] | 0.08 mg/kg
7 | Cn1cnc([N+](=O)[O-])c1NCCN1CCC(Cc2nc3ccccc3n2Cc2ccc(F)cc2)CC1 [Compound 377, 4-[[1-[(4-fluorophenyl)methyl]-1H-benzimidazol-2-yl]methyl]-N-(1-methyl-4-nitro-1H-imidazol-5-yl)-1-piperidineethanamine] | 0.16 mg/kg
8 | Fc1ccc(Cn2c(CC3CCNCC3)nc3ncccc32)cc1 [Compound 48, 1-[(4-fluorophenyl)methyl]-2-(4-piperidinylmethyl)-1H-imidazo[4,5-b]-pyridine] | 0.16 mg/kg
9 | Fc1ccc(Cn2c(CC3CCN(CCNc4cnccn4)CC3)nc3ccccc32)cc1 [Compound 368] | 0.01 mg/kg
10 | Fc1ccc(Cn2c(CC3CCN(CCNc4ncnc5[nH]cnc45)CC3)nc3ccccc32)cc1 [Compound 370] | 0.02 mg/kg
11 | O=C(c1ccco1)N(CCN1CCC(Cc2nc3ccccc3n2Cc2ccco2)CC1)c1ncccn1 [Compound 509, N-[2-[4-[[1-(2-furanylmethyl)-1H-benzimidazol-2-yl]methyl]-1-piperidinyl]-ethyl]-N-(2-pyrimidinyl)-2-furancarboxamide] | 0.02 mg/kg
12 | CCOC(=O)N1CCC(Cc2nc3ccccc3n2Cc2cccs2)CC1 [Compound 59, ethyl 4-[[1-(2-thienylmethyl)-1H-benzimidazol-2-yl]methyl]-1-piperidinecarboxylate] | 0.02 mg/kg
13 | COc1ccc(Cn2c(CC3CCN(CCCn4c(=O)[nH]c5ccccc54)CC3)nc3ccccc32)cc1 [Compound 154] | 0.08 mg/kg
14 | O=c1cc[nH]c(=O)n1CCN1CCC(Cc2nc3ccccc3n2Cc2ccco2)CC1 [Compound 175] | 0.02 mg/kg
15 | Fc1ccc(Cn2c(CC3CCN(CCNc4ccncn4)CC3)nc3ccccc32)cc1 [Compound 501] | 0.04 mg/kg
16 | O=c1oc2ccccc2cc1CCN1CCC(Cc2nc3ccccc3n2Cc2cscn2)CC1 [Compound 265] | 0.02 mg/kg
17 | Cc1nc2n(c(=O)c1CCN1CCC(Cc3nc4cccnc4n3Cc3ccc(F)cc3)CC1)CCCS2 [Compound 205, 7-[2-[4-[[3-[(4-fluorophenyl)methyl]-3H-imidazo[4,5-b]pyridin-2-yl]methyl]-1-piperidinyl]ethyl]-3,4-dihydro-8-methyl-2H,6H-pyrimido[2,1-b][1,3]thiazin-6-one] | 0.08 mg/kg
18 | O=c1[nH]c2ccccc2c(=O)n1CCCCN1CCC(Cc2nc3cccnc3n2Cc2ccco2)CC1 [Compound 491, 3-[4-[4-[[3-(2-furanylmethyl)-3H-imidazo[4,5-b]pyridin-2-yl]methyl]-1-piperidinyl]butyl]-2,4-(1H,3H)-quinazolinedione] | 0.16 mg/kg
19 | COc1ccc(CCN2CCC(Cc3nc4ccccc4n3Cc3cccs3)CC2)cc1 [Compound 232] | 0.08 mg/kg
20 | CC1(C)Nc2ccccc2C(=O)N1CCN1CCC(Cc2nc3cccnc3n2Cc2ccccn2)CC1 [Compound 479, 2,3-dihydro-2,2-dimethyl-3-[2-[4-[[3-(2-pyridinylmethyl)-3H-imidazo[4,5-b]-pyridin-2-yl]methyl]-1-piperidinyl]ethyl]-4(1H)-quinazolinone] | 0.04 mg/kg
21 | O=c1[nH]c2ccccc2n1CCCN1CCC(Oc2nc3ccccc3n2Cc2ccc(F)cc2)CC1 [Compound 140, 1-[3-[4-[[1-[(4-fluorophenyl)methyl]-1H-benzimidazol-2-yl]oxy]-1-piperidinyl]propyl]-1,3-dihydro-2H-benzimidazol-2-one] | 0.04 mg/kg
22 | Cc1nc2ccccn2c(=O)c1CCN1CCC(Cc2nc3ccccc3n2Cc2cccs2)CC1 [Compound 257] | 0.02 mg/kg

Row | Structure (SMILES) | ED50
23 | Nc1ccccc1C(=O)NCCN1CCC(Cc2nc3ccccc3n2Cc2ccco2)CC1 [Compound 466, 2-amino-N-[2-[4-[[1-(2-furanylmethyl)-1H-benzimidazol-2-yl]methyl]-1-piperidinyl]ethyl]benzamide] | 0.02 mg/kg
24 | Fc1ccc(Cn2c(CC3CCNCC3)nc3cccnc32)cc1 [Compound 45, 3-[(4-fluorophenyl)methyl]-2-(4-piperidinylmethyl)-3H-imidazo[4,5-b]-pyridine] | 0.04 mg/kg
25 | CNc1ccccc1C(=O)NCCN1CCC(Cc2nc3cccnc3n2Cc2ccc(F)cc2)CC1 [Compound 470] | 0.04 mg/kg
26 | Nc1ccccc1C(=O)NCCN1CCC(Oc2nc3ccccc3n2Cc2ccc(F)cc2)CC1 [Compound 480, 2-amino-N-[2-[4-[[1-[(4-fluorophenyl)methyl]-1H-benzimidazol-2-yl]oxy]-1-piperidinyl]ethyl]benzamide] | 0.02 mg/kg
27 | O=c1[nH]c2ccccc2n1CCCN1CCC(Cc2nc3cccnc3n2Cc2cccs2)CC1 [Compound 215] | 0.08 mg/kg
28 | CSc1nc2cncnc2n1CCN1CCC(Cc2nc3ccccc3n2Cc2ccc(F)cc2)CC1 [Compound 507, 9-[2-[4-[[1-[(4-fluorophenyl)methyl]-1H-benzimidazol-2-yl]methyl]-1-piperidinyl]ethyl]-8-(methylthio)-9H-purine] | 0.16 mg/kg
29 | Cc1nc2ccccn2c(=O)c1CCN1CCC(Cc2nc3ccccc3n2Cc2cscn2)CC1 [Compound 261] | 0.08 mg/kg
30 | O=c1oc2ccccc2cc1CCN1CCC(Cc2nc3ccccc3n2Cc2cccs2)CC1 [Compound 259] | 0.08 mg/kg
31 | Fc1ccc(Cn2c(CC3CCN(CCSc4ccccc4)CC3)nc3ccccc32)cc1 [Compound 129] | 0.16 mg/kg
32 | Cc1nc2n(c(=O)c1CCN1CCC(Cc3nc4cccnc4n3Cc3ccccn3)CC1)CCCC2 [Compound 258] | 0.08 mg/kg
33 | Fc1ccc(Cn2c(CC3CCNCC3)nc3ccncc32)cc1 [Compound 50, 3-[(4-fluorophenyl)methyl]-2-(4-piperidinylmethyl)-3H-imidazo[4,5-c]-pyridine] | 0.04 mg/kg
34 | O=c1oc2ccccc2cc1CCN1CCC(Cc2nc3ccccc3n2Cc2ccco2)CC1 [Compound 165] | 0.02 mg/kg
35 | Fc1ccc(Cn2c(CC3CCN(CCc4cccs4)CC3)nc3cccnc32)cc1 [Compound 117] | 0.01 mg/kg
36 | O=C(NCCN1CCC(Cc2nc3ccccc3n2Cc2ccc(F)cc2)CC1)c1cc(O)c2ccccc2n1 [Compound 444, N-[2-[4-[[1-[(4-fluorophenyl)methyl]-1H-benzimidazol-2-yl]methyl]-1-piperidinyl]ethyl]-4-hydroxy-2-quinolinecarboxamide] | 0.16 mg/kg
37 | O=c1[nH]c2ccccc2c(=O)n1CCN1CCC(Cc2nc3cccnc3n2Cc2ccco2)CC1 [Compound 171] | 0.08 mg/kg
38 | OC(COc1ccc2ccccc2c1)CN1CCC(Cc2nc3ccccc3n2Cc2ccc(F)cc2)CC1 (stereo not drawn) [Compound 116, 4-[[1-[(4-fluorophenyl)methyl]-1H-benzimidazol-2-yl]methyl]-α-[(2-naphthalenyloxy)methyl]-1-piperidineethanol] | 0.16 mg/kg
39 | c1coc(Cn2c(CC3CCN(CCNc4nc5cnccc5[nH]4)CC3)nc3cccnc32)c1 [Compound 417, N-[2-[4-[[3-(2-furanylmethyl)-3H-imidazo[4,5-b]pyridin-2-yl]methyl]-1-piperidinyl]ethyl]-1H-imidazo[4,5-c]pyridin-2-amine] | 0.04 mg/kg
40 | Fc1ccc(Cn2c(CC3CCN(C4CCCCC4)CC3)nc3cccnc32)cc1 [Compound 98] | 0.04 mg/kg
41 | Fc1ccc(Cn2c(CC3CCN(CCNCc4ccccn4)CC3)nc3ccccc32)cc1 [Compound 427, N-[2-[4-[[1-[(4-fluorophenyl)methyl]-1H-benzimidazol-2-yl]methyl]-1-piperidinyl]ethyl]-2-pyridinemethanamine] | 0.16 mg/kg
42 | Fc1ccc(Cn2c(SC3CCN(CCOc4ncccn4)CC3)nc3ccccc32)cc1 [Compound 393, 1-[(4-fluorophenyl)methyl]-2-[[1-[2-(2-pyrimidinyloxy)ethyl]-4-piperidinyl]thio]-1H-benzimidazole] | 0.08 mg/kg
43 | Fc1ccc(Cn2c(CC3CCN(Cc4ccccc4)CC3)nc3ncccc32)cc1 [Compound 23, 1-[(4-fluorophenyl)methyl]-2-[[1-(phenylmethyl)-4-piperidinyl]methyl]-1H-imidazo[4,5-b]pyridine] | 0.08 mg/kg

Same assay, conditions: s.c. or p.o. 1 h before compound 48/80 0.5 mg/kg i.v.; protection of 50% of animals, survival after 4 hours; 0.5 mg/kg, 240 min

Row | Structure (SMILES) | Compound 48/80 lethality test in rats ED50
44 | Cc1nc2n(c(=O)c1CCN1CCC(Cc3nc4ccccc4n3Cc3ccco3)CC1)CCS2 [Compound 167] | 0.01 mg/kg body weight

From US4839374A, “4-((Bicyclic heterocyclyl)-methyl and -hetero)-piperidines” (Janssen Pharmaceutica, N.V., priority 1987, dated 1989)
